Data from patent US7968591B2, “1,3-disubstituted 4-methyl-1H-pyrrole-2-carboxamides and their use in medicaments” (Gruenenthal GmbH, priority 2006, dated 2011).

The compounds below were run on batrachotoxin (BTX) binding site of the sodium channel (assay: Affinity for the batrachotoxin (BTX) binding site of the sodium channel). Settings: rat cerebrocortex synaptosomes, [3H]-Batrachotoxinin A20α benzoate 10 nM.
For `Cc1cn(Cc2ccc(F)cc2)c(C(=O)NCCCN(C)C)c1-c1ccco1` [Example 63, 1-(4-fluorobenzyl)-3-furan-2-yl-4-methyl-1H-pyrrole-2-carboxylic acid (3-dimethylamino-propyl)-amide], the “BTX (Na+ channel) (% inhibition at 10 μM)” value was 75%.
In the case of `COc1ccc(-c2c(C)cn(Cc3ccc(F)cc3)c2C(=O)N2CCCC2CN2CCCC2)cc1` (stereo not shown) [Example 64, [1-(4-fluorobenzyl)-3-(4-methoxyphenyl)-4-methyl-1H-pyrrol-2-yl]-(2-pyrrolidin-1-ylmethylpyrrolidin-1-yl)-methanone], the “BTX (Na+ channel) (% inhibition at 10 μM)” value is reported as 96%.
`CCN(CC)CCCNC(=O)c1c(-c2ccc(Cl)cc2)c(C)cn1CC(C)C` [Example 65, 3-(4-chlorophenyl)-1-isobutyl-4-methyl-1H-pyrrole-2-carboxylic acid (3-diethylamino-propyl)-amide] was tested, and the “BTX (Na+ channel) (% inhibition at 10 μM)” value was 88%.
For `COc1ccc(F)c(CN2CCN(C(=O)c3c(-c4ccc(Cl)cc4)c(C)cn3C)CC2)c1` [Example 66, [3-(4-chlorophenyl)-1,4-dimethyl-1H-pyrrol-2-yl]-[4-(2-fluoro-5-methoxybenzyl)-piperazin-1-yl]-methanone], the “BTX (Na+ channel) (% inhibition at 10 μM)” value was 73%.
In the case of `CCCCn1cc(C)c(-c2ccc(C)cc2)c1C(=O)N1CCN(Cc2cc(OC)ccc2OC)CC1` [Example 68, (1-butyl-4-methyl-3-p-tolyl-1H-pyrrol-2-yl)-[4-(2,5-dimethoxybenzyl)-piperazin-1-yl]-methanone], the “BTX (Na+ channel) (% inhibition at 10 μM)” value is reported as 84%.
In the case of `CCN(CC)CCN1CCN(C(=O)c2c(-c3ccc(C)cc3)c(C)cn2Cc2ccc(C)cc2)CC1` [Example 69, [4-(2-diethylamino-ethyl)-piperazin-1-yl]-[4-methyl-1-(4-methylbenzyl)-3-p-tolyl-1H-pyrrol-2-yl]-methanone], the “BTX (Na+ channel) (% inhibition at 10 μM)” value is reported as 91%.
With `COc1ccc(-c2c(C)cn(C)c2C(=O)N2CCN(c3cccc(Cl)c3)CC2)cc1` [Example 70, [4-(3-chlorophenyl)-piperazin-1-yl]-[3-(4-methoxyphenyl)-1,4-dimethyl-1H-pyrrol-2-yl]-methanone] the “BTX (Na+ channel) (% inhibition at 10 μM)” value was 59%.
For `Cc1cn(Cc2ccccc2Br)c(C(=O)N2CCN(C(C)C)CC2)c1-c1ccc(Cl)cc1` [Example 71, [1-(2-bromobenzyl)-3-(4-chlorophenyl)-4-methyl-1H-pyrrol-2-yl]-(4-isopropylpiperazin-1-yl)-methanone], the “BTX (Na+ channel) (% inhibition at 10 μM)” value was 83%.
`COc1ccc(-c2c(C)cn(Cc3ccc(F)cc3)c2C(=O)N2CCN(CCN(C)C)CC2)cc1` [Example 72, [4-(2-dimethylamino-ethyl)-piperazin-1-yl]-[1-(4-fluorobenzyl)-3-(4-methoxyphenyl)-4-methyl-1H-pyrrol-2-yl]-methanone] was tested, and the “BTX (Na+ channel) (% inhibition at 10 μM)” value was 81%.
`COc1ccc(CNC(=O)c2c(-c3ccc(Cl)cc3)c(C)cn2Cc2ccccc2F)c(OC)c1` [Example 73, 3-(4-chlorophenyl)-1-(2-fluorobenzyl)-4-methyl-1H-pyrrole-2-carboxylic acid 2,4-dimethoxybenzylamide] was tested, and the “BTX (Na+ channel) (% inhibition at 10 μM)” value was 49%.
In the case of `Cc1ccc(-c2c(C)cn(Cc3ccccc3)c2C(=O)NCCN2CCCC2)cc1` [Example 74, 1-benzyl-4-methyl-3-p-tolyl-1H-pyrrole-2-carboxylic acid (2-pyrrolidin-1-ylethyl)-amide], the “BTX (Na+ channel) (% inhibition at 10 μM)” value is reported as 101%.
In the case of `COc1ccc(CN2CCN(C(=O)c3c(-c4ccco4)c(C)cn3Cc3ccc(F)cc3)CC2)cc1F` [Example 75, [1-(4-fluorobenzyl)-3-furan-2-yl-4-methyl-1H-pyrrol-2-yl]-[4-(3-fluoro-4-methoxybenzyl)-piperazin-1-yl]-methanone], the “BTX (Na+ channel) (% inhibition at 10 μM)” value is reported as 89%.
In the case of `COc1ccc(-c2c(C)cn(C)c2C(=O)NCc2ccc(OC)cc2OC)cc1` [Example 76, 3-(4-methoxyphenyl)-1,4-dimethyl-1H-pyrrole-2-carboxylic acid 2,4-dimethoxybenzylamide], the “BTX (Na+ channel) (% inhibition at 10 μM)” value is reported as 41%.
For `Cc1cn(Cc2ccccc2)c(C(=O)NCCN2CCCC2)c1-c1ccccc1` [Example 77, 1-benzyl-4-methyl-3-phenyl-1H-pyrrole-2-carboxylic acid (2-pyrrolidin-1-ylethyl)-amide], the “BTX (Na+ channel) (% inhibition at 10 μM)” value was 91%.
In the case of `Cc1cn(C)c(C(=O)NCCCN2CCCCC2C)c1-c1ccc(Cl)cc1` (stereo not shown) [Example 78, 3-(4-chlorophenyl)-1,4-dimethyl-1H-pyrrole-2-carboxylic acid [3-(2-methylpiperidin-1-yl)-propyl]-amide], the “BTX (Na+ channel) (% inhibition at 10 μM)” value is reported as 86%.
In the case of `Cc1cn(Cc2ccccc2)c(C(=O)NC(C)c2ccc3ccccc3c2)c1-c1ccco1` (stereo not shown) [Example 81, 1-benzyl-3-furan-2-yl-4-methyl-1H-pyrrole-2-carboxylic acid (1-naphthalen-2-ylethyl)-amide], the “BTX (Na+ channel) (% inhibition at 10 μM)” value is reported as 35%.
